Two compounds from patent US9956205B2, “Polymorphic forms of 2-(5-bromo-4-(4-cyclopropylnaphthalen-1-yl)-4H-1,2,4-triazol-3-ylthio)acetic acid and uses thereof” (Ardea Biosciences, Inc., priority 2010, dated 2018) can be followed below.

Holding throughout (type): physicochemical
Series [1] is described as follows: Solid held in equilibrium with its saturated solvent solution at 60° C. The settings on record: saturated acetone solution, 6 days.
Series [2] can be described thus: Solubility in acetate buffer (25 mM, pH 5), assayed by HPLC. The settings on record: 25 °C, pH 5, aqueous buffer, thermodynamic from solid; for solubility at 5 day: Day 5; for solubility at 7 day: Day 7. As to the method: Form 1 (˜25 mg) and acetate buffer (25 mM, pH 5, 4 mL), prepared with and without sodium chloride (ionic strength adjusted to=0.1M), were placed in a glass vial which was sealed and placed on a laboratory rotator in a 25° C. incubator. After 1, 5, and 7 days the samples were filtered and assayed by HPLC.
Form 2 (˜25 mg) and acetate buffer (25 mM, pH 5, 4 mL), prepared with and without sodium chloride (ionic strength adjusted to=0.1M), were placed in a glass vial which was sealed and placed on a laboratory rotator in a 25° C. incubator. After 1, 5, and 7 days the samples were filtered and assayed by HPLC.

Series [3] in a line: Gravimetric vapor sorption (GVS) study. The settings on record: at high humidity. The source says: FIG. 12 illustrates a GVS study of form 1 and form 2. […] This property of decreased hygroscopicity greatly aids in the preparation of solid pharmaceutical dosage forms.
Series [4] can be described thus: Drug substance stability of packaged solid. The settings on record: 1 month, double LDPE bags inside HDPE container.
Protocol: Form 2 of 2-(5-bromo-4-(4-cyclopropylnaphthalen-1-yl)-4H-1,2,4-triazol-3-ylthio)acetate was tested under various conditions to determine drug substance stability. […] Packaging was in a double low density polyethylene plastic bags inside a HDPE container.

≈ marks a conversion by molar mass, not a printed value.

Take `O=C(O)CSc1nnc(Br)n1-c1ccc(C2CC2)c2ccccc12` [Form 1, 2-(5-bromo-4-(4-cyclopropylnaphthalen-1-yl)-4H-1,2,4-triazol-3-ylthio)acetic acid]: the “outcome of equilibration with saturated solution” value in series [1] was “decomposition”. In series [2] (pH 5, NaCl (I = 0.1)), this compound had a solubility at 5 day of 257 µg/mL (≈ 635 µM) and a solubility at 7 day of 304 µg/mL (≈ 753 µM). The compound further yielded a solubility at 1 day in series [2] (pH 5, No NaCl, Day 1) of 265 µg/mL (≈ 656 µM). Moreover, in series [2] (pH 5, No NaCl), the concentration in solution (solubility at 5 day) came to 213 µg/mL (≈ 528 µM) and the solubility at 7 day amounted to 157 µg/mL (≈ 388 µM). Besides, in series [3], the “adsorption (hygroscopicity) by GVS” value is under 0.2 % w/w.

As to `O=C(O)CSc1nnc(Br)n1-c1ccc(C2CC2)c2ccccc12` [Form 2, 2-(5-bromo-4-(4-cyclopropylnaphthalen-1-yl)-4H-1,2,4-triazol-3-ylthio)acetic acid], the “adsorption (hygroscopicity) by GVS” value in series [3] is under 0.1 % w/w. The “degradation of packaged drug substance” value in series [4] (25° C.-60% RH) and in series [4] (40° C.-75% RH) was “No degradation” each time.

What is called solubility is the dissolved amount per volume that the medium holds. The low end stands for little dissolved substance, the high end for much dissolved substance.
